Values quoted from earlier work, collected in patent publication US6534508B2, “Methods and compositions for treating infection using optically pure (S)-lomefloxacin” (priority 1991, dated 2003).
Values after ≈ are worked out from the molar mass of the structure shown.

Tested on: M. tuberculosis
Conditions: 11 strains resistant to conventional drug therapy; cited from earlier work

CCn1cc(C(=O)O)c(=O)c2cc(F)c(N3CCNC(C)C3)c(F)c21 (racemic) [LM, 1-ethyl-6,8-difluoro-1,4-dihydro-7-(3-methyl-lpiperazinyl)-4-oxo-3-quinolinecarboxylic acid]
MIC50: 1.0 µg/mL (≈ 2.85 µM) | MIC90: 1.1 µg/mL (≈ 3.13 µM)
